This note sets out measurements from PubChem BioAssay (NCI).

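These data come from cells grown in 96-well plates and exposed to compound for 48 hours at five concentrations. TGI: total growth inhibition.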 Where a SMILES comes first, the peptide text is derived from it. [ ]: non-standard residue; d: D form. The star is where a group is joined. ξ: configuration not given here. ξD = NC(CC(=O)O)C(=O)O; Ac3c = NC1(C(=O)O)CC1; Boc = CC(C)(C)OC(=O)*; OtBu = CC(C)(C)O*

Among the test systems are A549 NSCLC; BT-549 breast; SNB-75 CNS; HOP-62 NSCLC; A498 renal; UO-31 renal; SN12C renal; OVCAR-8 ovarian; SK-MEL-2 melanoma; RXF 393 renal; IGROV1 ovarian.
What all share (assay): NCI anticancer screen, dose series, 48 h

Regarding `O=C(O)c1cc(Cl)cc2c1NC1(N2)C(=O)Nc2ccccc21` (centres undefined), the TGI in the experiment with A549 NSCLC, in the experiment with BT-549 breast, with SNB-75 CNS, in the experiment on HOP-62 NSCLC, with A498 renal and with UO-31 renal was greater than 100 µM in each case. Further, the TGI with SN12C renal, with OVCAR-8 ovarian, in the experiment on SK-MEL-2 melanoma, in the experiment with RXF 393 renal and in the experiment on IGROV1 ovarian was greater than 100 µM each time.

As to `CC(=O)CC(C)(C)NC(=O)[C@@]1(O)CC[C@H]2[C@@H]3CCC4=CC(=O)CC[C@@H]4[C@H]3CC[C@@]21C`, the TGI with A549 NSCLC, in the experiment with BT-549 breast, in the experiment on SNB-75 CNS, in the experiment on HOP-62 NSCLC, in the experiment on A498 renal and in the experiment with UO-31 renal was greater than 100 µM each time. In addition, the TGI with SN12C renal, in the experiment with OVCAR-8 ovarian, with SK-MEL-2 melanoma, in the experiment on RXF 393 renal and with IGROV1 ovarian was greater than 100 µM in each case.

As to `C[C@@H]1CC[C@@H](C)[C@](C)(CCc2ccoc2)C/C=C\C=C/1C(=O)O`, the TGI in the experiment on A549 NSCLC, in the experiment with BT-549 breast, in the experiment on SNB-75 CNS, in the experiment with HOP-62 NSCLC, in the experiment on A498 renal and with UO-31 renal was greater than 50 µM in each case. For the same compound, the TGI with SN12C renal, with OVCAR-8 ovarian, in the experiment on SK-MEL-2 melanoma, with RXF 393 renal and with IGROV1 ovarian was greater than 50 µM each time.

Consider `Cc1cc(C)c2c(=N)c3ccccc3n(CCCCCCO)c2n1`, for which the TGI was determined as 17.7 µM in the experiment with A549 NSCLC; 23.7 µM in the experiment on BT-549 breast; 5.78 µM with SNB-75 CNS; 23.6 µM with HOP-62 NSCLC; 26.9 µM in the experiment with A498 renal; 6.01 µM in the experiment on UO-31 renal. Moreover, the TGI with SN12C renal was determined as 7.55 µM; with OVCAR-8 ovarian, 5.49 µM; with SK-MEL-2 melanoma, 9.47 µM; with RXF 393 renal, 14.2 µM; in the experiment on IGROV1 ovarian, 10.9 µM.

With `COc1ccc2c(-c3ccc(OCCN(C)C)cc3)c(Oc3ccc(Cl)cc3)c(=O)oc2c1`, the TGI in the experiment with A549 NSCLC is 18.7 µM; with BT-549 breast it was 37.6 µM; with SNB-75 CNS, 27.6 µM; in the experiment on HOP-62 NSCLC it was greater than 100 µM; in the experiment on A498 renal, 29.4 µM; in the experiment with UO-31 renal, 11.9 µM. Moreover, the TGI in the experiment on SN12C renal was greater than 53.3 µM; in the experiment with OVCAR-8 ovarian, greater than 46.9 µM; in the experiment on SK-MEL-2 melanoma it was 19.1 µM; in the experiment with RXF 393 renal, 12.4 µM; in the experiment with IGROV1 ovarian it was 14.1 µM.

In the case of `CCOC(=O)/C(C#N)=C(/NNc1ccccc1)c1ccncc1C(=O)O`, the TGI in the experiment with A549 NSCLC, in the experiment with BT-549 breast, in the experiment with SNB-75 CNS, in the experiment on HOP-62 NSCLC, in the experiment on A498 renal and in the experiment with UO-31 renal was greater than 100 µM in each case. Besides, the TGI in the experiment with SN12C renal, in the experiment on OVCAR-8 ovarian, in the experiment on SK-MEL-2 melanoma, with RXF 393 renal and in the experiment with IGROV1 ovarian was greater than 100 µM in each case.

Consider `Cc1c(C#N)c2nnn(-c3ccccc3)c(=O)n2c1-c1ccccc1`, for which the TGI in the experiment on A549 NSCLC is greater than 45.8 µM; in the experiment on BT-549 breast, greater than 100 µM; in the experiment on SNB-75 CNS, 18.2 µM; in the experiment on HOP-62 NSCLC, greater than 100 µM; with A498 renal, greater than 25.1 µM; in the experiment with UO-31 renal, greater than 100 µM. Further, the TGI is greater than 56.8 µM in the experiment with SN12C renal; greater than 100 µM in the experiment on OVCAR-8 ovarian; greater than 72.9 µM in the experiment on SK-MEL-2 melanoma; greater than 24.2 µM in the experiment with RXF 393 renal; greater than 100 µM in the experiment with IGROV1 ovarian.

On to `CC1(C)CCCCCCCCCC(C)(CCCCCCCCCCCCO)C1=O` (centres undefined), for which the TGI in the experiment with A549 NSCLC is 29.9 µM; in the experiment on BT-549 breast, 30.4 µM; in the experiment on SNB-75 CNS, 29.7 µM; in the experiment with HOP-62 NSCLC it was 47.5 µM; in the experiment on A498 renal, 35.7 µM; with UO-31 renal it was 32.1 µM. Further, the TGI amounted to 31.4 µM with SN12C renal; 28.4 µM in the experiment on OVCAR-8 ovarian; 32.7 µM with SK-MEL-2 melanoma; 33.3 µM in the experiment on RXF 393 renal; 33.7 µM with IGROV1 ovarian.

In the case of `COc1nc(OC)nc(-c2cccc(F)c2)n1`, the TGI in the experiment on A549 NSCLC came out at 52.6 µM; with BT-549 breast, 29.7 µM; with SNB-75 CNS, 44.4 µM; in the experiment with HOP-62 NSCLC, 45.7 µM; in the experiment with A498 renal, 34.1 µM; in the experiment on UO-31 renal it was 31.8 µM. Besides, the TGI is 31.5 µM with SN12C renal; 69.2 µM with OVCAR-8 ovarian; 38.6 µM in the experiment on SK-MEL-2 melanoma; 35 µM with RXF 393 renal; 31.8 µM with IGROV1 ovarian.

Turning to `COC1=CC(=O)c2c(O)c3c(c(O)c2C1=O)C[C@](C)(O)C[C@@H]3O`, the TGI stood at 9.81 µM with A549 NSCLC; 22.5 µM with BT-549 breast; 28 µM with SNB-75 CNS; 19.7 µM in the experiment on HOP-62 NSCLC; 20.1 µM in the experiment with A498 renal; 26.9 µM in the experiment on UO-31 renal. Further, the TGI in the experiment on SN12C renal is 13 µM; with OVCAR-8 ovarian, 15.7 µM; in the experiment on SK-MEL-2 melanoma it was 14.3 µM; in the experiment on RXF 393 renal, 17.3 µM; in the experiment with IGROV1 ovarian, 17.2 µM.

As for `CN(CCc1ccc(Cl)c(Cl)c1)CCN(C)CCN1CCCC1`, the TGI in the experiment on A549 NSCLC was 28.3 µM; with BT-549 breast, 36.2 µM; in the experiment on SNB-75 CNS, 31.5 µM; in the experiment with HOP-62 NSCLC, 34.9 µM; with A498 renal, 26.3 µM; with UO-31 renal it was 17.2 µM. In addition, the TGI was found to be 40.2 µM with SN12C renal; 62 µM in the experiment with OVCAR-8 ovarian; 10 µM in the experiment on SK-MEL-2 melanoma; 26.6 µM in the experiment on RXF 393 renal; 43.7 µM in the experiment with IGROV1 ovarian.

As to `COC(=O)C1(NC(=O)C(CC(=O)OC(C)(C)C)NC(=O)OC(C)(C)C)CC1` (centres undefined) (Boc-[ξD](OtBu)-[Ac3c]-OMe), the TGI in the experiment on A549 NSCLC, with BT-549 breast, in the experiment on SNB-75 CNS, with HOP-62 NSCLC, in the experiment with A498 renal and with UO-31 renal was greater than 100 µM each time. Besides, the TGI in the experiment on SN12C renal, in the experiment with OVCAR-8 ovarian, in the experiment with SK-MEL-2 melanoma, in the experiment on RXF 393 renal and with IGROV1 ovarian was greater than 100 µM in each case.

On to `OC(CCN1CCN(CCOC(c2ccccc2)c2ccccc2)CC1)c1ccc(Br)cc1` (centres undefined), for which the TGI with A549 NSCLC is 30.5 µM; in the experiment on BT-549 breast, 26.1 µM; with SNB-75 CNS it was 27.5 µM; in the experiment on HOP-62 NSCLC, 32 µM; in the experiment with A498 renal, 22 µM; in the experiment with UO-31 renal, 4.77 µM. Further, the TGI was determined as 25.2 µM in the experiment on SN12C renal; 19.9 µM with OVCAR-8 ovarian; 25.6 µM in the experiment with SK-MEL-2 melanoma; 22.9 µM with RXF 393 renal; 24.7 µM in the experiment with IGROV1 ovarian.

`ONC1=Nc2ccccc2OCc2cc(Br)c(Br)cc2COc2ccccc2N=C1NO`: the TGI in the experiment with A549 NSCLC was greater than 54 µM; with BT-549 breast, 42.5 µM; with SNB-75 CNS, greater than 54.7 µM; in the experiment on HOP-62 NSCLC it was 38.9 µM; in the experiment with A498 renal it was 43.2 µM; in the experiment on UO-31 renal, greater than 54.4 µM. Besides, the TGI in the experiment with SN12C renal is 27.3 µM; in the experiment with OVCAR-8 ovarian it was greater than 47.5 µM; in the experiment on SK-MEL-2 melanoma it was 38.7 µM; in the experiment with RXF 393 renal, 47.9 µM; with IGROV1 ovarian, greater than 37.7 µM.
